This is an account of results in US20150112425A1, “DELIVERY OF HIGHLY LIPOPHILIC AGENTS VIA MEDICAL DEVICES” (Abbott Laboratories, priority 2005, published 2015).

The nature of series [1]: Pharmacokinetics after single intravenous dose in cynomolgus monkey. It is filed as in vivo. As to conditions: for t1/2: terminal elimination, single 2.5 mg/kg intravenous dose, blood; for Terminal elimination half-life compared to rapamycin: cynomolgus monkey, intravenous.
Series [2] concerns human mixed lymphocyte reaction (MLR). Put plainly: Human mixed lymphocyte reaction (MLR) assay. The note with it: read-out: Human MLR IC50 ± S.E.M. It is filed as cell-based.
Series [3] is described as follows: Six-hour elution from PC1036-coated coupons (FIG. 10-13). It is filed as physicochemical. As to conditions: for Amount released from coupon: after 6 hours, pH 7.4 PBS, 37° C.; for Amount remaining on coupon: six-hour elution. The procedure: Prior to any experimentation, coated stainless steel coupons were prepared. These coupons were 316 L electropolished stainless steel discs (10 mm diameter). This size was chosen because the surface area of one side of the coupon is similar to the surface area of a 15-mm open cell BiodivYsio stent. […]. The cleaning was a two-step process in which the coupons are sonicated for 3 minutes in dichloromethylene and 3 minutes in ethanol. The coupons were allowed to dry at room temperature. One side of the coupon was coated using a filtered 20-mg/mL solution of phosphoryl choline polymer PC1036 (product of Biocompatibles Ltd., Farnham, Surrey, UK) in ethanol. Twenty μL PC solution was placed onto the coupon using a gas tight glass syringe, ensuring that the entire surface was coated but not spilling over the sides of the coupon. The coupons were initially air dried and then cured at 70° C. for 16 hours. They were then sent for gamma irradiation at <25KGy. The resulting PC coating thickness was close to that of the stent and thick enough to accommodate the desired loaded drug dose, as graphically represented in FIG. 9A-B. FIG. 9A-B is a top and side view of a coated stainless steel coupon 30, having a PC-coating 20 on a electropolished stainless steel disc.
In these experiments, beneficial agents were loaded onto coupons and elution profiles examined. In general, the procedure is as follows. Twelve PC-coated coupons were loaded with each drug. The solutions of the drugs were usually 5.0 mg/mL in 100% ethanol and were filtered with a 0.45 μm filter prior to use.
The coupons were weighed before loading with the drug solution. To load 100 μg of drug, 20 μL of solution was placed (e.g., pipetted) on the center of the PC coated side of the coupon. The coupon was placed in a vial for 30 minutes with the lid closed to allow the drug to penetrate the coating. The lid was removed and the coupon was allowed to dry for an additional 90 minutes. To ensure that the coupon was completely dry, the coupon was weighed, and after 15 minutes the coupon was weighed a third time. When two weightings of the coupon were the same, the coupon was considered dry. The loaded, dry coupons were stored in a refrigerator protected from light.
For each drug, six coupons were used to evaluate the total amount of drug loaded by the above procedure. The coupons were immersed in 5 mL of 50% ethanol, 50% water solution and sonicated for 1 hour. The concentration of the drug in the extraction solution was analyzed by HPLC.
At the end of the elution experiments discussed below, the coupons were removed from the elution media and immersed in 5 mL of 50% ethanol, 50% water solution and sonicated for 1 hour. The concentration of the drug in these vials indicated the amount of the drug remaining in the coupons at the end of the elution experiments.
Six coated coupons of each drug were used for the elution experiments. The coupons were individually placed, coating side up, in small metal cups to hold the coupon and to allow movement to a new vial at each time point. The coupons were usually placed in a vial containing 10 mL of pH 7.4 phosphate buffered saline. The vials were stored in an orbital shaker, with horizontal shaking of 100 rpm, at 37° C. for at least 30 minutes before insertion of a coupon to allow the solution to equilibrate at the desired temperature. After the desired time had lapsed, the coupon holder was lifted and allowed to drain. It was then placed into a pre-warmed vial corresponding to the next time point. This procedure continued until the predetermined time had elapsed. At that point, the coupons went through a drug extraction step as outlined earlier. The amount of drug in the elution samples was determined by HPLC.

The conditions of series [4]: representative summary; cited from earlier work.
Series [5] is described as follows: Stability of dexamethasone on PC-coated stents in ETO sterilization (FIG. 16). It counts as physicochemical.
Series [6] in a line: Shake-flask aqueous solubility study of DES drugs (FIG. 20). The note with it: amorphous DES drugs; dexamethasone crystalline.
A short description of series [7]: Transfer coefficient (P divided by S) of DES drugs (FIG. 21). It counts as physicochemical. As to conditions: P divided by equilibrium aqueous solubility S (μg/ml).
The nature of series [8]: Shake-flask octanol/water partition coefficient study of DES drugs (FIG. 20). It counts as physicochemical. The procedure: “Solubility” is based on a standard measure used in medicinal chemistry. The octanol-water partition coefficient (P) is the ratio of distribution of a compound in a mixture of 1-octanol and H2O. Log P is the base 10 logarithm of the partition coefficient.
In the measurement of the partition coefficient (octanol/water), preliminary studies were conducted to determine the optimum drug concentration for each test, and the appropriate time for establishing the partition equilibrium. All experiments were carried out by two different analysts and on multiple drug lots.

Like-named read-outs stand apart in the source and are kept apart here. Where only a bound is given, the exact number is not on record here.

For the compound “40-epi-N-[2′-pyridone]-rapamycin [Example 2-pyridone]”, the t1/2 in series [1] is 2.8 h. Further, in series [2], the IC50 is 12.4 ± 5.3 nM. `CO[C@H]1C[C@@H]2CC[C@@H](C)[C@@](O)(O2)C(=O)C(=O)N2CCCC[C@H]2C(=O)O[C@H]([C@H](C)C[C@@H]2CC[C@H](n3ncnn3)[C@H](OC)C2)CC(=O)[C@H](C)/C=C(\C)[C@@H](O)[C@@H](OC)C(=O)[C@H](C)C[C@H](C)/C=C/C=C/C=C/1C` (single isomer, unassigned; less polar) [Example 1, 42-Epi-(tetrazolyl)-rapamycin (less polar isomer)]: in series [1], the “Terminal elimination half-life compared to rapamycin” value is given as “substantially shorter”. The same measure, in the same setting: in the case of `COC1CC2CCC(C)C(O)(O2)C(=O)C(=O)N2CCCCC2C(=O)OC(C(C)CC2CCC(n3cnnn3)C(OC)C2)CC(=O)C(C)C=C(C)C(O)C(OC)C(=O)C(C)CC(C)C=CC=CC=C1C` (single isomer, unassigned; more polar) [Example 2, 42-Epi-(tetrazolyl)-rapamycin (more polar isomer)] it was “substantially shorter”.

`CCCCN(CCCC)C(=O)CN1C[C@H](c2ccc3c(c2)OCO3)[C@@H](C(=O)O)[C@@H]1c1ccc(OC)cc1.Cl` [ABT-627, atrasentan]: the “Amount released from coupon” value in series [3] (in absence of zotarolimus) is listed as 50%; in series [3] (in presence of zotarolimus), “less than 10%”. In series [4], the “LogP Values” is 3.4.

On to `COc1ccccc1OCCNCC(O)COc1cccc2[nH]c3ccccc3c12` (centres unmarked) [Carvedilol], for which the “LogP Values” in series [4] was 1.97. `C#C[C@]1(O)CC[C@H]2[C@@H]3CCC4=Cc5oncc5C[C@]4(C)[C@H]3CC[C@@]21C` [Danazol]: the “LogP Values” in series [4] is given as 4.5. Consider `C[C@@H]1C[C@H]2[C@@H]3CCC4=CC(=O)C=C[C@]4(C)[C@@]3(F)[C@@H](O)C[C@]2(C)[C@@]1(O)C(=O)CO` [Dexamethasone], for which the “Degradation in ETO sterilization environment” value is “degraded” in series [5] (dexamethasone-only coating) and “did not degrade” in series [5] (loaded in combination with zotarolimus, 1-to-1 ratio). Besides, the “Amount remaining on coupon” value in series [3] (coupon containing zotarolimus) was roughly 70%; in series [3] (no zotarolimus present), 25%. The “LogP Values” in series [4] is listed as ~1.9-2.2. Also, the “Aqueous solubility, rank order” value in series [6] was “increasing order: paclitaxel, zotarolimus, rapamycin, and dexamethasone (crystalline)”.

Regarding `OCCN(CCO)c1nc(N2CCCCC2)c2nc(N(CCO)CCO)nc(N3CCCCC3)c2n1` [Dipyridamole], the results for the “Amount released from coupon” value in series [3] (in absence of zotarolimus) and in series [3] (in presence of zotarolimus) were roughly 90% and “about 52%”, respectively. For `COC1CC2CCC(C)C(O)(O2)C(=O)C(=O)N2CCCCC2C(=O)OC(C(C)CC2CCC(n3ccc(=O)cc3)C(OC)C2)CC(=O)C(C)C=C(C)C(O)C(OC)C(=O)C(C)CC(C)C=CC=CC=C1C` (stereo not drawn) [Example 4-pyridone, 40-epi-N-[4′-pyridone]-rapamycin], the t1/2 in series [1] was 13.3 h. Besides, in series [2], the IC50 was determined as 0.43 ± 0.2 nM. As for `CC(C)OC(=O)C(C)(C)Oc1ccc(C(=O)c2ccc(Cl)cc2)cc1` [Fenofibrate], the “LogP Values” in series [4] is on record as greater than 4.5. With `CCCCC/C=C\C/C=C\CCCCCCCC(=O)O` [Linoleic acid], the “LogP Values” in series [4] is greater than 6.

Turning to `CC/C=C\C/C=C\C/C=C\CCCCCCCC(=O)O` [Linolenic acid], the “LogP Values” in series [4] was greater than 6.

As for `CCCCCCCC/C=C\CCCCCCCC(=O)O` [Oleic acid], the “LogP Values” in series [4] is greater than 6. For `CC(=O)O[C@H]1C(=O)[C@@]2(C)[C@H]([C@H](OC(=O)c3ccccc3)[C@]3(O)C[C@H](OC(=O)[C@H](O)[C@@H](NC(=O)c4ccccc4)c4ccccc4)C(C)=C1C3(C)C)[C@]1(OC(C)=O)CO[C@@H]1C[C@@H]2O` [Paclitaxel], the “Transfer coefficient, rank order” value in series [7] is given as “zotarolimus>>paclitaxel>>rapamycin>dexamethasone”. Further, the “Aqueous solubility, rank order” value in series [6] was “increasing order: paclitaxel, zotarolimus, rapamycin, and dexamethasone (crystalline)”. In the case of `O=C(Oc1ccccc1)c1ccccc1O` [Phenyl salicylate], the “LogP Values” in series [4] is reported as 4.1. `CC(C)(Sc1cc(C(C)(C)C)c(O)c(C(C)(C)C)c1)Sc1cc(C(C)(C)C)c(O)c(C(C)(C)C)c1` [Probucol]: in series [4], the “LogP Values” is greater than 8. Consider `CC(=O)[C@H]1CC[C@H]2[C@@H]3CCC4=CC(=O)CC[C@]4(C)[C@H]3CC[C@]12C` [Progesterone], for which the “LogP Values” in series [4] is on record as 3.2. Consider `CO[C@H]1C[C@@H]2CC[C@@H](C)[C@@](O)(O2)C(=O)C(=O)N2CCCC[C@H]2C(=O)O[C@H]([C@H](C)C[C@@H]2CC[C@@H](O)[C@H](OC)C2)CC(=O)[C@H](C)/C=C(\C)[C@@H](O)[C@@H](OC)C(=O)[C@H](C)C[C@H](C)/C=C/C=C/C=C/1C` [Rapamycin], for which the “Lipophilicity rank among DES drugs tested” value in series [8] is reported as “the most lipophilic compounds in the group tested”. Also, the “Transfer coefficient, rank order” value in series [7] was “zotarolimus>>paclitaxel>>rapamycin>dexamethasone”. In addition, in series [4], the “LogP Values” is recorded as greater than 4.5. The IC50 in series [2] (Homo sapiens, Lymphocyte) is 0.91 ± 0.36 nM. Further, the “Aqueous solubility, rank order” value in series [6] is “increasing order: paclitaxel, zotarolimus, rapamycin, and dexamethasone (crystalline)”. Consider `CCCCCCCCCCCCCCCCCC(=O)O` [Stearic acid], for which, in series [4], the “LogP Values” is recorded as greater than 6. With `C=CC[C@@H]1/C=C(\C)C[C@H](C)C[C@H](OC)[C@H]2O[C@@](O)(C(=O)C(=O)N3CCCC[C@H]3C(=O)O[C@H](/C(C)=C/[C@@H]3CC[C@@H](O)[C@H](OC)C3)[C@H](C)[C@@H](O)CC1=O)[C@H](C)C[C@@H]2OC` [Tacrolimus], the “LogP Values” in series [4] was greater than 4.5.

Regarding `CC[C@]1(O)C[C@@H]2CN(CCc3c([nH]c4ccccc34)[C@@](C(=O)OC)(c3cc4c(cc3OC)N(C)[C@H]3[C@@](O)(C(=O)OC)[C@H](OC(C)=O)[C@]5(CC)C=CCN6CC[C@]43[C@@H]65)C2)C1` [Vinblastine], the “LogP Values” in series [4] is given as 3.6.

With `CC[C@]1(O)C[C@H]2CN(CCc3c([nH]c4ccccc34)[C@@](C(=O)OC)(c3cc4c(cc3OC)N(C=O)[C@H]3[C@@](O)(C(=O)OC)[C@H](OC(C)=O)[C@]5(CC)C=CCN6CC[C@]43[C@@H]65)C2)C1` [Vincristine], in series [4], the “LogP Values” is recorded as 2.6. With `CC[C@]1(O)C[C@@H]2CN(CCc3c([nH]c4ccccc34)[C@@](C(=O)OC)(c3cc4c(cc3OC)N(C)[C@H]3[C@@](O)(C(N)=O)[C@H](O)[C@]5(CC)C=CCN6CC[C@]43[C@@H]65)C2)C1` [Vindesine], the “LogP Values” in series [4] is 1.3.

In general, IC50 refers to the point on the concentration scale where inhibition reaches its midpoint.
